TGI and GI50 data for 22 compounds are collected here from PubChem BioAssay (NCI).

Common to all, as to experiment: DTP human tumour cell line panel, 48 h
The subject of test [1] is A549 NSCLC.
For test [2], the system named is ACHN renal.
Test [3] concerns HCT-15 colon.
In test [4] the test system is HL-60(TB) leukemia.
Test [5] relates to K-562 leukemia.
The test system of test [6] is NCI-H226 lung.
The test system of test [7] is RPMI-8226 leukemia.
Test [8] concerns SF-295 CNS.
Test [9] has as its system SK-MEL-2 melanoma.
The subject of test [10] is SK-OV-3 ovarian.

SMILES strings stand for the structures.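 Briefly, cells in 96-well plates were exposed to five compound concentrations for 48 h, and endpoints were estimated by linear interpolation. GI50 = concentration required for 50% inhibition of growth. TGI marks complete inhibition of growth.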

For the compound `COC(=O)C(C(=O)C(=O)Nc1cccc(OC)c1)c1cnc2ccccc2n1` (stereo not given), the total growth inhibition concentration (TGI) in test [1], in [2], in test [3], in [4], in [5] and in test [6] was above 100 µM in each case. In addition, the TGI in test [7], in test [8], in [9] and in test [10] was above 100 µM in each case.

Take `O=C1CN=C(C[N+](=O)[O-])c2ccccc21`: the TGI in [1], in test [2], in test [3], in test [4], in [5] and in test [6] was above 100 µM throughout. In addition, the concentration for total growth inhibition (TGI) in [7], in test [8], in test [9] and in test [10] was above 100 µM each time.

Take `NC(=NCCCOc1ccc(Cl)cc1)Nc1ccc(C(F)(F)F)cc1`: the GI50 (in general, the concentration at which growth is held to half of that of the control) was 2.78 µM in [1]; 2.27 µM in [2]; 1720 nM in test [3]; 1.59 µM in [4]; 1760 nM in test [5]; 3.87 µM in test [6]. In addition, the GI50 in test [7] was 1.75 µM; in test [8], 1.7 µM; in test [9], 1.87 µM; in test [10] it was 4.68 µM. For the same compound, the total growth inhibition concentration (TGI) (commonly the concentration giving total growth inhibition) in test [1] came to 12.6 µM; in test [2], 7.03 µM; in [3], 4.15 µM; in test [4], 3.77 µM; in test [5], 5.6 µM; in test [6], 19.2 µM. Also, the total growth inhibition concentration (TGI) in [7] came out at 4.32 µM; in test [8] it was 3.28 µM; in test [9] it was 3.88 µM; in test [10], 18.1 µM.

As to `COC(=O)C1=C(C)N(NC(=O)c2ccccc2)C(C)(O)C12CCOC2=O` (stereo not given), the TGI in [1], in [2], in test [3], in test [4], in test [5] and in [6] was above 100 µM throughout. For the same compound, the TGI in [7] was above 100 µM; in test [8] it was above 100 µM; in [9], 2.41 µM; in test [10], above 100 µM.

Turning to `Cc1ccc(SC(C)/C=C/NNC2=NC(c3ccccc3)C(c3ccccc3)=NN2)cc1` (stereo not given), the total growth inhibition concentration (TGI) in [1] is above 100 µM; in [2] it was above 100 µM; in test [3] it was above 100 µM; in test [4] it was 42.5 µM; in [5], above 100 µM; in [6], 98.1 µM. In addition, the TGI in [7], in test [8], in [9] and in test [10] was above 100 µM throughout.

`Cn1cc(C2=C(c3ccc4ccccc4c3)C(=O)NC2=O)c2ccccc21`: the GI50 in test [1] is above 21.8 µM; in test [2] it was above 25 µM; in test [3], 6270 nM; in test [4], above 21.4 µM; in test [5] it was 2090 nM; in [6], above 25 µM. Also, the GI50 is above 23.8 µM in test [7], above 23.5 µM in test [8], above 25 µM in test [9] and above 25 µM in test [10]. Besides, the concentration for total growth inhibition (TGI) in test [1], in test [2], in test [3], in [4], in test [5] and in test [6] was above 25 µM throughout. In addition, the TGI in test [7], in [8], in [9] and in test [10] was above 25 µM in each case.

Regarding `COc1ncnc(C2CC2)c1-c1ncc2cnn(Cc3ccc(-c4nc(C(F)(F)F)cn4C(C)C)cc3)c2n1`, the GI50 in test [1] is 19.3 µM; in [2] it was 17.6 µM; in [3] it was 17000 nM; in [4], 31 µM; in [5] it was 13900 nM; in [6] it was 9.08 µM. Moreover, the GI50 in test [7] is 10.9 µM; in test [8], 18.4 µM; in [9], 14.5 µM; in [10], 36.8 µM. Further, the total growth inhibition concentration (TGI) in test [1] is above 100 µM; in test [2], 49.2 µM; in [3], 90.7 µM; in [4] it was above 100 µM; in test [5] it was above 100 µM; in test [6], 50.7 µM. Besides, the total growth inhibition concentration (TGI) in test [7] is 42.2 µM; in [8], 65.1 µM; in test [9] it was 30.4 µM; in test [10], above 100 µM.

In the case of `O=C(Nc1nc2ncn(CCI)c2c(=O)[nH]1)c1ccccc1`, the total growth inhibition concentration (TGI) was above 100 µM in test [1]; above 100 µM in [2]; above 100 µM in [3]; above 100 µM in test [4]; above 100 µM in [5]; 77.4 µM in test [6]. Also, the total growth inhibition concentration (TGI) in test [7] is above 100 µM; in [8], above 87.4 µM; in [9], above 92.3 µM; in test [10], 90.5 µM.

In the case of `C=C(CCCCC)CN1CCCC1[C@@](C)(O)CC(=O)OCC` (stereo not given in full), the total growth inhibition concentration (TGI) in test [1], in [2], in test [3], in test [4], in test [5] and in test [6] was above 100 µM each time. Further, the total growth inhibition concentration (TGI) in test [7], in test [8], in test [9] and in [10] was above 100 µM in each case.

`CS(=O)(=O)N/N=C/CN1C(=O)c2ccccc2C1=O`: the TGI in [1], in test [2], in test [3], in test [4], in [5] and in test [6] was above 100 µM each time. In addition, the total growth inhibition concentration (TGI) in [7], in test [8], in [9] and in [10] was above 100 µM each time.

On to `CCCCOC(=O)C1C(c2ccc(Cl)cc2)NC(c2ccc(Cl)cc2)C(C(=O)OCCCC)S1(=O)=O` (stereo not given), for which the TGI in [1], in test [2], in test [3], in [4], in [5] and in test [6] was above 100 µM throughout. Also, the TGI in test [7], in test [8], in [9] and in [10] was above 100 µM throughout.

Consider `COc1ccc(C2S/C(=C\c3ccccc3O)C(=O)N2NC(=O)Cc2ccccc2)cc1` (stereo not given), for which the concentration for total growth inhibition (TGI) in test [1], in test [2], in [3], in test [4], in [5] and in test [6] was above 100 µM throughout. Further, the TGI in [7], in test [8], in test [9] and in test [10] was above 100 µM each time.

For the compound `COC(=O)C12C3C4C1C1C2C3C41C(=O)OC(C)(C)C` (stereo not given), the total growth inhibition concentration (TGI) in test [1], in test [2], in [3], in [4], in test [5] and in test [6] was above 100 µM each time. In addition, the TGI in test [7] is above 72.3 µM; in [8], above 100 µM; in test [9], above 100 µM; in test [10] it was above 100 µM.

Consider `O=[n+]1c2c(n([O-])c3ccccc31)CCCCCCCCCC2`, for which the TGI in test [1] was above 100 µM; in [2], above 100 µM; in test [3] it was above 100 µM; in test [4] it was above 100 µM; in test [5], above 100 µM; in test [6] it was 61.8 µM. Further, the TGI in test [7], in test [8], in test [9] and in test [10] was above 100 µM in each case.

With `CNC(=S)NC1CCCCC1NC(=S)NC` (stereo not given), the TGI in test [1], in test [2], in test [3], in test [4], in test [5] and in test [6] was above 100 µM each time. The TGI in test [7], in [8], in test [9] and in test [10] was above 100 µM throughout.

As for `COC(=O)c1cc2c3ccccc3n(C(C)=O)c2cn1`, the TGI in [1], in test [2], in [3], in test [4], in [5] and in test [6] was above 100 µM each time. Further, the TGI in [7], in [8], in test [9] and in test [10] was above 100 µM in each case.

Turning to `COC(=O)C1=C(c2ccc3c(c2)OCO3)O[C@H](c2cc(OC)c(OC)c(OC)c2)[C@H]1COC(C)=O`, the TGI is 47.8 µM in test [1]; above 100 µM in test [2]; above 100 µM in test [3]; 32.5 µM in test [4]; above 100 µM in [5]; above 100 µM in [6]. Besides, the TGI in [7] is above 100 µM; in test [8] it was 11.4 µM; in [9], above 100 µM; in test [10], 5.94 µM.

Turning to `O=C1CCCC/C(=C/c2ccccc2)N1`, the TGI in [1], in [2], in [3], in test [4], in [5] and in [6] was above 100 µM each time. The total growth inhibition concentration (TGI) in test [7], in test [8], in test [9] and in test [10] was above 100 µM each time.

Turning to `C=C(C=O)C1CCC2(C(=O)O)CCC3(C)C(CCC4C5(C)CCC(O)C(C)(C)C5CCC43C)C12` (stereo not given), the GI50 in test [1] is 4.58 µM; in test [2], 1.69 µM; in test [3], 1650 nM; in test [4], 4.1 µM; in [5], 2720 nM; in [6], 14.3 µM. Also, the GI50 in test [7] is 2.64 µM; in test [8] it was 3.39 µM; in test [9], 3.82 µM; in test [10], 7.37 µM. Moreover, the concentration for total growth inhibition (TGI) in test [1] was 28.7 µM; in test [2], 3.23 µM; in test [3], 4.47 µM; in test [4], above 100 µM; in test [5] it was above 100 µM; in [6], above 100 µM. Further, the TGI in [7] is above 100 µM; in [8], 15.1 µM; in test [9], 12 µM; in test [10] it was 19.6 µM.

`C=C(C=O)[C@@H]1C2OC(=O)C(=C)[C@@H]2CC(O)[C@@]1(C)CC` (stereo not given in full): the concentration for total growth inhibition (TGI) in test [1] is above 100 µM; in test [2] it was 27.1 µM; in [3], 24.7 µM; in test [4] it was 5.92 µM; in test [5], 22.6 µM; in test [6], 59.8 µM. For the same compound, the TGI in [7] is 10 µM; in test [8], 57.2 µM; in test [9], 21.7 µM; in test [10] it was 99.9 µM.

In the case of `Oc1ccc(Cl)cc1Cc1cc(Cl)cc(Cl)c1O`, the GI50 was 5.48 µM in test [1]; 3.69 µM in test [2]; 4180 nM in test [3]; 4.64 µM in [4]; 4520 nM in test [5]; 12.7 µM in [6]. The GI50 in test [7] was 3.09 µM; in test [8] it was 6.66 µM; in test [9] it was 5.53 µM; in test [10], 2.93 µM. Further, the TGI is 47.6 µM in test [1]; 18 µM in test [2]; 23.5 µM in test [3]; 28.6 µM in [4]; 28.4 µM in test [5]; 37.2 µM in [6]. Also, the concentration for total growth inhibition (TGI) in [7] came out at 11.9 µM; in [8], 57.5 µM; in test [9] it was 29 µM; in [10], 13.1 µM.

In the case of `O=S(=O)([O-])c1ccc2c(c1)-c1nc-2nc2[n-]c(nc3nc(nc4[n-]c(n1)c1ccc(S(=O)(=O)[O-])cc41)-c1cc(S(=O)(=O)[O-])ccc1-3)c1ccc(S(=O)(=O)[O-])cc21.[Cu+2].[Na+]`, the GI50 in [1] is 24.1 µM; in test [2], above 74.3 µM; in test [3] it was 977 nM; in test [4], 0.174 µM; in test [5], 749 nM; in test [6], above 100 µM. For the same compound, the GI50 was above 56.4 µM in [7], 98.4 µM in test [8], above 100 µM in test [9] and 97.9 µM in test [10]. Also, the TGI is above 100 µM in test [1]; above 100 µM in test [2]; 36.4 µM in test [3]; above 17.7 µM in [4]; above 50.3 µM in test [5]; above 100 µM in test [6]. Besides, the TGI in test [7] is above 74.3 µM; in test [8], above 100 µM; in [9], above 100 µM; in test [10], above 100 µM.
